Patent publication US6342633B1, “O-benzyl oxime ether derivatives and their use as pesticides” (Bayer Aktiengesellschaft, priority 1993, dated 2002)

Row | melting point | SMILES
1 | 73 to 75 °C | [H]/N=C(OC)/C(=N/OC)c1ccccc1CON=C(C)c1ccc(Cl)cc1 [Compound 1.13]
2 | 76 to 78 °C | CO/N=C(N)/C(=N/OC)c1ccccc1CO/N=C(\C)c1ccc(Cl)cc1 [Compound 3.101]
3 | 88 to 89 °C | CNC(=S)/C(=N/OC)c1ccccc1CON=C(C)c1ccc(Cl)cc1 [Compound 4.10]
4 | 100 to 106 °C | CNC(=S)/C(=N/OC)c1ccccc1CO/N=C(\C)c1cccc(C(F)(F)F)c1 [Compound 4.51, N-methyl-2-[2-(methyl(3-trifluoromethylphenyl)oximinomethyl)phenyl]-2-methoximinothioacetamide]
5 | 79 to 80 °C | C/N=C(OC)/C(=N/OC)c1ccccc1CO/N=C(\C)c1ccc(Cl)cc1 [Example H-4, N,O-dimethyl-2-[2-(methyl(4-chlorophenyl)oximinomethyl)phenyl]2-methoximinoacetimidate]
